Data on 1 compound can be found in US20100056508A1, “AMINE DERIVATIVES AND THEIR USE IN BETA-2-ADRENORECEPTOR MEDIATED DISEASES” (ASTRAZENECA AB, priority 2006, published 2010).

In experiment [1] the target is T1, recombinant human adrenergic beta 1 receptors (Homo sapiens, UniProt P08588).
T1 construct: purchased Euroscreen
Briefly: Adrenergic β1 selectivity assay, [125I]-Iodocyanopindolol binding to membranes. Conditions: inhibition of [125I]-Iodocyanopindolol binding, read-out: β1 bind pIC50 (converted). How it is done: Membranes containing recombinant human adrenergic beta 1 receptors were obtained from Euroscreen. These were diluted in Assay Buffer (50 mM HEPES, 1 mM EDTA, 120 mM NaCl, 0.1% gelatin, pH 7.4) to provide a final concentration of membranes that gave a clear window between maximum and minimum specific binding.
(§1) Assays were performed in U-bottomed 96-well polypropylene plates. 10 μL [^125I]-Iodocyanopindolol (0.036 nM final concentration) and 10 μL of test compound (10× final concentration) were added to each test well. For each assay plate 8 replicates were obtained for [^125I]-Iodocyanopindolol binding in the presence of 10 μL vehicle (10% (v/v) DMSO in Assay Buffer; defining maximum binding) or 10 μL Propranolol (10 μM final concentration; defining non-specific binding (NSB)). Membranes were then added to achieve a final volume of 100 μL. The plates were incubated for 2 hours at room temperature and then filtered onto PEI coated GF/B filter plates, pre-soaked for 1 hour in Assay Buffer, using a 96-well plate Tomtec cell harvester. Five washes with 250 μL wash buffer (50 mM HEPES, 1 mM EDTA, 120 mM NaCl, pH 7.4) were performed at 4° C. to remove unbound radioactivity. The plates were dried then sealed from underneath using Packard plate sealers and MicroScint-O (50 μL) was added to each well. The plates were sealed (TopSeal A) and filter-bound radioactivity was measured with a scintillation counter (TopCount, Packard BioScience) using a 3-minute counting protocol.
Total specific binding (B0) was determined by subtracting the mean NSB from the mean maximum binding. NSB values were also subtracted from values from all other wells. […] Data was fitted to a four parameter logistic equation to determine the compound potency, which was expressed as pIC50 (negative log molar concentration inducing 50% inhibition of [^125I]-Iodocyanopindolol binding).

The target in another experiment is T2, Adrenergic β2 (Homo sapiens, UniProt P07550).
T2 construct: Adherent H292 cells were removed from tissue culture flasks; endogenous in cells; host or cells: H292 cells
T2 sequence (P07550 whole entry): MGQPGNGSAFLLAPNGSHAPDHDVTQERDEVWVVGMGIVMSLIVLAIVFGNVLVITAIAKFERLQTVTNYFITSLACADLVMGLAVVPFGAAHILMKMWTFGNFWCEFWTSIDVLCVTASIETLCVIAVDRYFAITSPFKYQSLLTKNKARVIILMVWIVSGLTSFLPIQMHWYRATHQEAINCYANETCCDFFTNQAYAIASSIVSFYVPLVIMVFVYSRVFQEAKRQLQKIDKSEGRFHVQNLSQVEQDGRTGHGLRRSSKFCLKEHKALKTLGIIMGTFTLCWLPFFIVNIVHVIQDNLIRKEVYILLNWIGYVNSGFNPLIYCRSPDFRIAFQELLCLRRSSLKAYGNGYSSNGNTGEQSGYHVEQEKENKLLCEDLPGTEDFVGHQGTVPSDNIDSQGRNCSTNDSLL
The experiment is described as follows: Adrenergic β2 mediated cAMP production in H292 cells (AlphaScreen cAMP detection). Format: cell-based. Details: key to β2 Int Act: fraction of formoterol maximum activity (formoterol = 1). As to the method: Adrenergic β2 Mediated cAMP Production
H292 cells were grown in 225 cm2 flasks incubator at 37° C., 5% CO2 in RPMI medium containing, 10% (v/v) FBS (foetal bovine serum) and 2 mM L-glutamine.
Adherent H292 cells were removed from tissue culture flasks by treatment with Accutase™ cell detachment solution for 15 minutes. Flasks were incubated for 15 minutes in a humidified incubator at 37° C., 5% CO2. Detached cells were re-suspended in RPMI media (containing 10% (v/v) FBS and 2 mM L-glutamine) at 1×10^6 cells per mL. 10000 cells in 100 μL were added to each well of a tissue-culture-treated 96-well plate and the cells incubated overnight in a humidified incubator at 37° C., 5% CO2. The culture media was removed and cells were washed twice with 100 μL assay buffer and replaced with 50 μL assay buffer (HBSS solution containing 10 mM HEPES pH7.4 and 5 mM glucose). Cells were rested at room temperature for 20 minutes after which time 25 μL of rolipram (1.2 mM made up in assay buffer containing 2.4% (v/v) dimethylsulphoxide) was added. Cells were incubated with rolipram for 10 minutes after which time test compounds were added and the cells were incubated for 60 minutes at room temperature. The final rolipram concentration in the assay was 300 μM and final vehicle concentration was 1.6% (v/v) dimethylsulphoxide. The reaction was stopped by removing supernatants, washing once with 100 μL assay buffer and replacing with 50 μL lysis buffer. The cell monolayer was frozen at −80° C. for 30 minutes (or overnight).
AlphaScreen™ cAMP Detection
The concentration of cAMP (cyclic adenosine monophosphate) in the cell lysate was determined using AlphaScreen™ methodology. The frozen cell plate was thawed for 20 minutes on a plate shaker then 10 μL of the cell lysate was transferred to a 96-well white plate. 40 μL of mixed AlphaScreen™ detection beads pre-incubated with biotinylated cAMP, was added to each well and the plate incubated at room temperature for 10 hours in the dark. The AlphaScreen™ signal was measured using an EnVision spectrophotometer (Perkin-Elmer Inc.) with the recommended manufacturer's settings. cAMP concentrations were determined by reference to a calibration curve determined in the same experiment using standard cAMP concentrations. Concentration response curves for agonists were constructed and data was fitted to a four parameter logistic equation to determine both the pEC50 and Intrinsic Activity. Intrinsic Activity was expressed as a fraction relative to the maximum activity determined for formoterol in each experiment.

The target in experiment [2] is T3, recombinant human α1D receptor (Homo sapiens, UniProt P25100).
T3 construct: expressed in transfected cells; host or cells: human embryonic kidney 293 cells (HEK93 [sic]), membranes
T3 sequence (P25100 1-572): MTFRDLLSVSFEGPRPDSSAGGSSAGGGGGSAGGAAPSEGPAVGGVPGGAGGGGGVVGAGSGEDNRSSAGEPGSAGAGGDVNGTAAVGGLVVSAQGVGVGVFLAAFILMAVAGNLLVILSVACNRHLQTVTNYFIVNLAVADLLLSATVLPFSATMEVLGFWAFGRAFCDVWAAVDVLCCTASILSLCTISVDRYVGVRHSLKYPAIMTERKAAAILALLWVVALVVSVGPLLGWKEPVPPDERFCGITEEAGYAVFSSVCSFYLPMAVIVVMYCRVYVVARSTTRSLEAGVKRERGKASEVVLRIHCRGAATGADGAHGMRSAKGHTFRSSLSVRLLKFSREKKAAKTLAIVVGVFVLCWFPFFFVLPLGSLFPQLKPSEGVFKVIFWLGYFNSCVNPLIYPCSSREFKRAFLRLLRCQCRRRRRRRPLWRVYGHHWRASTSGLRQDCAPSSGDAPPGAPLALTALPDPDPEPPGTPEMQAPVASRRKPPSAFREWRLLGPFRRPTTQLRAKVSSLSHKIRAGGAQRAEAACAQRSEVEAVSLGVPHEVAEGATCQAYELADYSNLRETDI
The experiment is described as follows: Adrenergic α1D selectivity assay, [3H]-prazosin binding to membranes. Conditions: inhibition of [3H]-prazosin binding, HEK cell membranes, read-out: α1 bind pIC50 (converted). As to the method: Membranes were prepared from human embryonic kidney 293 ([…]) cells expressing recombinant human α1D receptor. These were diluted in Assay Buffer (50 mM HEPES, 1 mM EDTA, pH 7.4) to provide a final concentration of membranes that gave a clear window between maximum and minimum specific binding.
as §1, with “10 μL [^3H]-prazosin (0.3 nM final” for “10 μL [^125I]-Iodocyanopindolol (0.036 nM final”, “and […] of test” for “and 10 μL of test”, “obtained for [^3H]-prazosin binding in” for “obtained for [^125I]-Iodocyanopindolol binding in”, “10 μL BMY7378 (10 μM” for “10 μL Propranolol (10 μM”, “mM EDTA, pH 7.4)” for “mM EDTA, 120 mM NaCl, pH 7.4)”
Total specific binding (B0) was determined by subtracting the mean NSB from the mean maximum binding. NSB values were also subtracted from values from all other wells. […] Data was fitted to a four parameter logistic equation to determine the compound potency, which was expressed as pIC50 (negative log molar concentration inducing 50% inhibition of [^3H]-prazosin binding).

T1 sequence (P08588 whole entry): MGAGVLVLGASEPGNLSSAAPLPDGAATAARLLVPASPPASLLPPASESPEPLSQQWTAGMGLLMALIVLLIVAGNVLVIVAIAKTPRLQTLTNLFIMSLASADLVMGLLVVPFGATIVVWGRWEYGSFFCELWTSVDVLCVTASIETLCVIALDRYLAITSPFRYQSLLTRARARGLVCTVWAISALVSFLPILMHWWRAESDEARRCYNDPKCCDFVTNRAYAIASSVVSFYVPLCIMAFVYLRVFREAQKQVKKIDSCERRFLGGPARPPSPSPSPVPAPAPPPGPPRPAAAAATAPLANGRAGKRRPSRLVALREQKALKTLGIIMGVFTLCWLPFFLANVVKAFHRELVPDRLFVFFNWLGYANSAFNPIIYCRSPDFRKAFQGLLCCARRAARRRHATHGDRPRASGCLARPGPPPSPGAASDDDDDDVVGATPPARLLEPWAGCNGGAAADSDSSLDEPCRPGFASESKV

Consider `O=C1COc2c(CCNCCN(C(=O)CCNCCc3cc(Cl)ccc3F)C3CCCCC3)ccc(O)c2N1` [Example 34, 3-(5-Chloro-2-fluorophenethylamino)-N-cyclohexyl-N-(2-(2-(5-hydroxy-3-oxo-3,4-dihydro-2H-benzo[b][1,4]oxazin-8-yl)ethylamino)ethyl)propanamide bis(trifluoroacetate)], for which the figures for the IC50 in experiment [1] and in experiment [2] were 1000 nM and 63.1 nM, respectively. For the same compound, the “β2 Int Act” value at Adrenergic β2 (Intrinsic Activity as a fraction relative to the maximum activity determined for formoterol) amounted to 0.9. Besides, the EC50 at Adrenergic β2 (cAMP production, 60 minutes at room temperature, 300 μM rolipram, read-out: β2 pEC50 (converted)) was 1.58 nM.
